Measured values reported in PubChem BioAssay (NCI).
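Interpolation was linear, between the two tested concentrations surrounding the appropriate level; five concentrations were tested over 48 hours in 96-well plates. GI50 is the concentration that inhibits growth by half. The concentration for full growth arrest is given as TGI.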

Legend:
Test in all cases: NCI-60 cell line screen, 48 h
M19-MEL melanoma = test system: M19-MEL melanoma
HCC-2998 colon = test system: HCC-2998 colon
DLD-1 colon = test system: DLD-1 colon
SNB-78 CNS = test system: SNB-78 CNS
MCF7 breast = test system: MCF7 breast
BT-549 breast = test system: BT-549 breast
SR leukemia = test system: SR leukemia
PC-3 prostate = test system: PC-3 prostate
DU-145 prostate = test system: DU-145 prostate
HS 578T breast = test system: HS 578T breast
M14 melanoma = test system: M14 melanoma

SMILES	TGI (M19-MEL melanoma)	TGI (HCC-2998 colon)	TGI (DLD-1 colon)	TGI (SNB-78 CNS)	TGI (MCF7 breast)	TGI (BT-549 breast)	TGI (SR leukemia)	TGI (PC-3 prostate)	TGI (DU-145 prostate)	TGI (HS 578T breast)	TGI (M14 melanoma)	other results
Nc1ccc2[nH]c3c(-c4ccccc4)nccc3c2c1	> 100 µM	96.8 µM	> 100 µM	> 100 µM	> 100 µM							
C[C@]12CCc3nc(Nc4ccccc4)sc3C1=CC[C@@H]1[C@@H]2CC[C@]2(C)/C(=N/NC(N)=S)CC[C@@H]12		> 100 µM			> 100 µM	> 100 µM	> 100 µM	> 100 µM	> 100 µM	> 100 µM	> 100 µM	GI50 (BT-549 breast): 3.26 µM; GI50 (HCC-2998 colon): 32.6 µM; GI50 (SR leukemia): 1.71 µM; GI50 (PC-3 prostate): 2.95 µM; GI50 (DU-145 prostate): 2.96 µM; GI50 (MCF7 breast): 1.08 µM; GI50 (HS 578T breast): > 100 µM; GI50 (M14 melanoma): 3.71 µM
COc1ccc(/C(Cl)=C(\C=O)c2ccc(F)cc2)cc1OC	66.1 µM		78.4 µM	62.5 µM							47.9 µM	
Cc1[nH]c(=O)[nH]c(=O)c1/C=C/C(=O)O	> 1000 µM	> 1000 µM	> 1000 µM	> 1000 µM	> 1000 µM							
N=C(N)c1ccc(N=Nc2c(O)ccc3c2[nH]c2ccccc23)cc1						99.4 µM		> 60.3 µM	> 100 µM	> 100 µM	> 100 µM	
O=C(NC(Cc1ccc(I)cc1)C(=O)O)c1ccc(Br)cc1 (configuration not stated)	> 100 µM	> 100 µM	> 100 µM	> 100 µM	> 100 µM							
COc1cc(Nc2c3ccccc3nc3ccccc23)ccc1NS(C)(=O)=O	22.3 µM	28.8 µM	22 µM	47.1 µM			15.2 µM				13.5 µM	
Cc1ccc(S(=O)(=O)OCC(=O)O)cc1						> 100 µM	> 100 µM	> 100 µM	> 100 µM	> 100 µM	> 100 µM	
